Reference: ChEMBL document CHEMBL4382233, “Discovery of novel arylethenesulfonyl fluorides as potential candidates against methicillin-resistant of Staphylococcus aureus (MRSA) for overcoming multidrug resistance of bacterial infections” (2019)
Values after ≈ are worked out from the molar mass of the structure shown. Active and inactive are the calls of the source. The rule behind the calls is not given here.

Key:
[1] = system: Staphylococcus aureus; assay: Antibacterial activity against methicillin-resistant Staphylococcus aureus after overnight incubation by micro broth dilution analysis; type: functional
[2] = system: Staphylococcus epidermidis; assay: Antibacterial activity against methicillin-resistant Staphylococcus epidermidis after overnight incubation by micro broth dilution analysis; type: functional
[3] = system: Staphylococcus haemolyticus; assay: Antibacterial activity against methicillin-resistant Staphylococcus haemolyticus after overnight incubation by micro broth dilution analysis; type: functional
[4] = system: Staphylococcus aureus; assay: Antibacterial activity against methicillin-resistant Staphylococcus aureus assessed as zone of inhibition at 50 ug/mL after 24 hrs by agar disc diffusion method; type: functional; conditions: read-out: IZ
[5] = system: Staphylococcus aureus; assay: Antibacterial activity against methicillin-resistant Staphylococcus aureus assessed as zone of inhibition at 200 ng/mL after 24 hrs by agar disc diffusion method; type: functional; conditions: read-out: IZ
[6] = system: Staphylococcus aureus; assay: Antibacterial activity against methicillin-resistant Staphylococcus aureus assessed as zone of inhibition at 400 ng/mL after 24 hrs by agar disc diffusion method; type: functional; conditions: read-out: IZ
[7] = system: Staphylococcus aureus; assay: Antibacterial activity against methicillin-resistant Staphylococcus aureus assessed as zone of inhibition at 800 ng/mL after 24 hrs by agar disc diffusion method; type: functional; conditions: read-out: IZ
[8] = system: Staphylococcus epidermidis; assay: Antibacterial activity against methicillin-resistant Staphylococcus epidermidis assessed as zone of inhibition at 20 ug/mL after 24 hrs by agar disc diffusion method; type: functional; conditions: read-out: IZ
[9] = system: Staphylococcus epidermidis; assay: Antibacterial activity against methicillin-resistant Staphylococcus epidermidis assessed as zone of inhibition at 200 ng/mL after 24 hrs by agar disc diffusion method; type: functional; conditions: read-out: IZ
[10] = system: Staphylococcus epidermidis; assay: Antibacterial activity against methicillin-resistant Staphylococcus epidermidis assessed as zone of inhibition at 400 ng/mL after 24 hrs by agar disc diffusion method; type: functional; conditions: read-out: IZ
[11] = system: Staphylococcus epidermidis; assay: Antibacterial activity against methicillin-resistant Staphylococcus epidermidis assessed as zone of inhibition at 800 ng/mL after 24 hrs by agar disc diffusion method; type: functional; conditions: read-out: IZ
[12] = system: Staphylococcus haemolyticus; assay: Antibacterial activity against methicillin-resistant Staphylococcus haemolyticus assessed as zone of inhibition at 50 ug/mL after 24 hrs by agar disc diffusion method; type: functional; conditions: read-out: IZ
[13] = system: Staphylococcus haemolyticus; assay: Antibacterial activity against methicillin-resistant Staphylococcus haemolyticus assessed as zone of inhibition at 200 ng/mL after 24 hrs by agar disc diffusion method; type: functional; conditions: read-out: IZ
[14] = system: Staphylococcus haemolyticus; assay: Antibacterial activity against methicillin-resistant Staphylococcus haemolyticus assessed as zone of inhibition at 400 ng/mL after 24 hrs by agar disc diffusion method; type: functional; conditions: read-out: IZ
[15] = system: Staphylococcus haemolyticus; assay: Antibacterial activity against methicillin-resistant Staphylococcus haemolyticus assessed as zone of inhibition at 800 ng/mL after 24 hrs by agar disc diffusion method; type: functional; conditions: read-out: IZ
[16] = system: Staphylococcus aureus; assay: Induction of cellular content release in methicillin-resistant Staphylococcus aureus assessed as DNA content by measuring optical density at 260 nm at MIC after 240 mins by UV-visible spectrophotometric analysis; type: functional
[17] = system: Staphylococcus aureus; assay: Antibiofilm activity against methicillin-resistant Staphylococcus aureus at MIC after 24 hrs by crystal violet staining-based UV-visible spectrophotometric analysis; type: functional, organism-based
[18] = system: Staphylococcus aureus; assay: Antibiofilm activity against methicillin-resistant Staphylococcus aureus assessed as optical density at 492 nm at 1 to 2 times MIC after 24 hrs by crystal violet staining-based UV-visible spectrophotometric analysis; type: functional
[19] = system: Staphylococcus aureus; assay: Antibiofilm activity against methicillin-resistant Staphylococcus aureus planktonic biofilm assessed as optical density at 492 nm at MIC after 24 hrs by crystal violet staining-based UV-visible spectrophotometric analysis; type: functional
[20] = system: Staphylococcus aureus; assay: Induction of pore formation in methicillin-resistant Staphylococcus aureus cell membrane assessed as increase in ferricyanide mediated cellular leakage after 2 hrs by DCPIP dye-based cyclic voltammetric analysis; type: functional, organism-based
[21] = system: Staphylococcus aureus; assay: Induction of pore formation in methicillin-resistant Staphylococcus aureus cell membrane assessed as increase in ferricyanide mediated potassium efflux after 2 hrs by DCPIP dye-based cyclic voltammetric analysis; type: functional, organism-based
[22] = system: Staphylococcus aureus; assay: Induction of pore formation in methicillin-resistant Staphylococcus aureus cell membrane assessed as increase in ferricyanide mediated DNA damage after 2 hrs by DCPIP dye-based cyclic voltammetric analysis; type: functional, organism-based
[23] = system: Staphylococcus aureus; assay: Antibiofilm activity against methicillin-resistant Staphylococcus aureus assessed as reduction in adherence of planktonic bacteria at MIC up to 24 hrs by SEM analysis; type: functional, organism-based
[24] = system: Staphylococcus aureus; assay: Induction of membrane disruption in methicillin-resistant Staphylococcus aureus at MIC up to 24 hrs by SEM analysis; type: functional, organism-based
[25] = system: Staphylococcus aureus; assay: Antibacterial activity against methicillin-resistant Staphylococcus aureus at MIC by SEM analysis; type: functional, organism-based; conditions: TDE = time-dependent effect
[26] = system: Staphylococcus aureus; assay: Antibacterial activity against methicillin-resistant Staphylococcus aureus assessed as zone of inhibition at 30 ug/mL after 24 hrs by agar disc diffusion method; type: functional; conditions: read-out: IZ
[27] = system: Staphylococcus epidermidis; assay: Antibacterial activity against methicillin-resistant Staphylococcus epidermidis assessed as zone of inhibition at 30 ug/mL after 24 hrs by agar disc diffusion method; type: functional; conditions: read-out: IZ
[28] = system: Staphylococcus haemolyticus; assay: Antibacterial activity against methicillin-resistant Staphylococcus haemolyticus assessed as zone of inhibition at 30 ug/mL after 24 hrs by agar disc diffusion method; type: functional; conditions: read-out: IZ
[29] = system: Staphylococcus aureus; assay: Antibiofilm activity against methicillin-resistant Staphylococcus aureus at 2 times MIC after 24 hrs by crystal violet staining-based UV-visible spectrophotometric analysis; type: functional, organism-based
[30] = system: Staphylococcus aureus; assay: Antibacterial activity against methicillin-resistant Staphylococcus aureus assessed as zone of inhibition at 10 ug/mL after 24 hrs by agar disc diffusion method; type: functional; conditions: read-out: IZ
[31] = system: Staphylococcus epidermidis; assay: Antibacterial activity against methicillin-resistant Staphylococcus epidermidis assessed as zone of inhibition at 10 ug/mL after 24 hrs by agar disc diffusion method; type: functional; conditions: read-out: IZ
[32] = system: Staphylococcus haemolyticus; assay: Antibacterial activity against methicillin-resistant Staphylococcus haemolyticus assessed as zone of inhibition at 10 ug/mL after 24 hrs by agar disc diffusion method; type: functional; conditions: read-out: IZ

Compound | MIC99 [1] | MIC99 [2] | MIC99 [3] | zone of inhibition at 50 µg/mL [4] | zone of inhibition at 0.2 µg/mL [5] | zone of inhibition at 0.4 µg/mL [6] | zone of inhibition at 0.8 µg/mL [7] | zone of inhibition at 20 µg/mL [8] | zone of inhibition at 50 µg/mL [12] | zone of inhibition at 0.2 µg/mL [13] | zone of inhibition at 0.4 µg/mL [14] | zone of inhibition at 0.8 µg/mL [15] | OD [16] | Activity [17] | OD [18] | OD [19] | Activity [20] | Activity [21] | Activity [22] | Activity [29] | other results
O=S(=O)(F)/C=C/c1ccc(Cl)cc1 | 0.818 µg/mL (≈ 3.71 µM) | 0.83 µg/mL (≈ 3.76 µM) | 0.846 µg/mL (≈ 3.83 µM) | 8.2 mm | 6.3 mm | 8.2 mm | 10 mm | 10.3 mm | 7.2 mm | 4.1 mm | 5.1 mm | 71 mm | 1.28 | Active | 0.66 | 0.66 | Active | Active | Active | – | zone of inhibition at 0.2 µg/mL [9]: 5.2 mm; zone of inhibition at 0.4 µg/mL [10]: 7.2 mm; zone of inhibition at 0.8 µg/mL [11]: 8.4 mm
CS(=O)(=O)c1cccc(/C=C/S(=O)(=O)F)c1 | 0.81 µg/mL (≈ 3.06 µM) | 44.2 µg/mL (≈ 167 µM) | 39.1 µg/mL (≈ 148 µM) | 10 mm | 6.4 mm | 7.1 mm | 10.2 mm | 6.2 mm | 6.3 mm | – | – | – | 1.86 | Active | 0.61 | 0.612 | Active | Active | Active | – | –
O=S(=O)(F)/C=C/c1cc(Cl)nc(Cl)c1 | 0.811 µg/mL (≈ 3.17 µM) | 0.84 µg/mL (≈ 3.28 µM) | 0.842 µg/mL (≈ 3.29 µM) | 12.1 mm | 7.1 mm | 9.2 mm | 11.4 mm | 7.1 mm | 7.2 mm | 5.2 mm | 6.5 mm | 7.4 mm | 1.85 | Active | 0.72 | 0.725 | Active | Active | Active | – | zone of inhibition at 0.2 µg/mL [9]: 5.4 mm; zone of inhibition at 0.4 µg/mL [10]: 6.3 mm; zone of inhibition at 0.8 µg/mL [11]: 7.2 mm; Activity [23]: Active; Activity [24]: Active; Activity [25]: Tde
N#Cc1ccc(/C=C/S(=O)(=O)F)cc1 | 0.84 µg/mL (≈ 3.98 µM) | 0.831 µg/mL (≈ 3.93 µM) | 0.847 µg/mL (≈ 4.01 µM) | 11.4 mm | 6.1 mm | 7.3 mm | 8.5 mm | 7.5 mm | 7.2 mm | 4.2 mm | 5.1 mm | 6.2 mm | 1.42 | Active | 0.68 | 0.685 | Active | Active | Active | – | zone of inhibition at 0.2 µg/mL [9]: 5.2 mm; zone of inhibition at 0.4 µg/mL [10]: 6.3 mm; zone of inhibition at 0.8 µg/mL [11]: 7.6 mm
NC[C@H]1O[C@H](O[C@H]2[C@H](O)[C@@H](O[C@H]3O[C@H](CO)[C@@H](O)[C@H](N)[C@H]3O)[C@H](N)C[C@@H]2N)[C@H](O)[C@@H](O)[C@@H]1O [KANAMYCIN] | 9.12 µg/mL (≈ 18.8 µM) | 30.1 µg/mL (≈ 62.2 µM) | 21.2 µg/mL (≈ 43.7 µM) | – | – | – | – | – | – | – | – | – | – | – | – | 0.715 | – | – | – | Active | zone of inhibition at 30 µg/mL [26]: 12 mm; zone of inhibition at 30 µg/mL [27]: 8.3 mm; zone of inhibition at 30 µg/mL [28]: 4.81 mm
CC1(C)S[C@@H]2[C@H](NC(=O)[C@H](N)c3ccccc3)C(=O)N2[C@H]1C(=O)O [AMPICILLIN] | 0.12 µg/mL (≈ 0.343 µM) | 7.15 µg/mL (≈ 20.5 µM) | 10.1 µg/mL (≈ 28.9 µM) | – | – | – | – | – | – | – | – | – | – | – | – | 0.745 | – | – | – | Active | zone of inhibition at 10 µg/mL [30]: 9.95 mm; zone of inhibition at 10 µg/mL [31]: 11.7 mm; zone of inhibition at 10 µg/mL [32]: 7.6 mm
CCn1cc(C(=O)O)c(=O)c2cc(F)c(N3CCNCC3)cc21 [NORFLOXACIN] | 0.61 µg/mL (≈ 1.91 µM) | 0.73 µg/mL (≈ 2.29 µM) | 0.58 µg/mL (≈ 1.82 µM) | – | – | – | – | – | – | – | – | – | – | – | – | 0.695 | – | – | – | Active | zone of inhibition at 30 µg/mL [26]: 10 mm; zone of inhibition at 30 µg/mL [27]: 9.07 mm; zone of inhibition at 30 µg/mL [28]: 12.7 mm
O=S(=O)(F)/C=C/c1cc(Cl)cc(Cl)c1 | 0.812 µg/mL (≈ 3.18 µM) | 48.1 µg/mL (≈ 188 µM) | 16.3 µg/mL (≈ 63.9 µM) | 20.1 mm | 6.2 mm | 10.2 mm | 14.2 mm | 4.4 mm | 13.1 mm | 0 mm | 3.3 mm | 5.1 mm | 1.34 | Active | – | 0.825 | Active | Active | Active | – | –
CC(=O)c1cccc(/C=C/S(=O)(=O)F)c1 | 0.851 µg/mL (≈ 3.73 µM) | 55.6 µg/mL (≈ 244 µM) | 0.843 µg/mL (≈ 3.69 µM) | 10.1 mm | 5.2 mm | 7.5 mm | 8.1 mm | 3.3 mm | 8.2 mm | 4.2 mm | 5.2 mm | 6.2 mm | 1.28 | – | – | – | Active | Active | Active | Active | –
